In brackets after ≈: the same amount, converted by molar mass. Where two headings read alike, the source gives them in different places.
Key:
ATF4 = assay: HEK-ATF4 High Content Imaging assay (prevention of Tunicamycin induced ISR; ATF4 signal ratio between nucleus and cytoplasm); assay type: cell-based
Method in brief: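 Wild-type HEK293 cells in 0.3% FBS medium were co-treated with compounds and Tunicamycin (3.3 μM in prediluted medium, 11-fold over final) for 6 h at 37 °C. Fixed cells were immunostained for ATF4 with Hoechst nuclei; imaging gave nuclear/cytoplasmic ATF4 ratio, with nuclei counts as toxicity control.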

[1] = molecular target: T1, human ERG potassium channel (hERG) (Homo sapiens, UniProt Q12809); assay: hERG channel tail current recording using in vitro Rapid ICE (automated patch-clamp, QPatch HTX); assay type: cell-based
T1 construct: expressed in transfected cells; host or cells: HEK293, stably transfected, tetracycline-inducible promoter
Method in brief: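 Automated patch clamp on tetracycline-induced HEK293 hERG cells; pulse −80 to −50 mV 200 ms, +20 mV 4.8 s, −50 mV 5 s tail, extracellular pH 7.4. Compound at 0.3, 3, 30 μM (0.3% DMSO), 5 min exposure; tail current versus vehicle gives % inhibition and estimated IC50.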

[2] = Thermodynamic (Equilibrium) solubility in selected buffer; assay type: physicochemical; conditions: for solubility: aqueous buffer, thermodynamic from solid
Method in brief: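 Powdered compound at 1 mg/mL target in 50 mM phosphate pH 2.0, 50 mM acetate pH 5.5 or 50 mM phosphate pH 7.4, stirred overnight at r.t. in the dark, then 0.45 μm filtered. Filtrate quantified by UPLC-UV peak area against a 0.8 mg/mL DMSO reference.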

[3] = Log D 7.4 assay (1-octanol / phosphate buffer pH 7.4); assay type: physicochemical
Experimental: Phosphate buffer (1 M) was diluted to 20 mM with deionised water and adjusted to pH 7.4 (±0.05) with phosphoric acid or sodium hydroxide. A 1:1 mixture of phosphate buffer (20 mM) and 1-octanol were saturated by tumbling overnight after which time the two phases were separated. Using an automated liquid handler the following procedure was carried out: 20 mM DMSO stocks of assay and control compounds were reformatted to provide cassettes of 4 compounds per well giving a final concentration of 5 mM per compound. In duplicate 5 μL of the cassetted compounds were added to 495 μL 1-octanol (saturated with buffer) followed by 495 μL of buffer (saturated with 1-octanol) in a 96-well plate giving final incubation concentrations of 25 μM (50 μM max concentration in either layer if all compound partitioned into a single matrix). The layers were mixed by aspirating and dispensing the buffer and octanol layers into one another three times. The plate was sealed, shaken for 120 minutes and then centrifuged at 25° C. for 15 min at 4600 rpm. The 1-octanol and buffer layer were sampled separately (ensuring no cross contamination) and the respective samples diluted with 60:40 ACN:0.1 M ammonium acetate pH 7.4 (containing external standard; Sulfisoxazole, assay concentration 120 nM) to obtain final theoretical maximum concentrations of the 1-octanol layer of 0.025 μM, 0.5 μM and a buffer layer concentration of 0.5 μM. The second buffer sample was prepared by diluting the assay buffer layer with acetonitrile (containing external standard; Sulfisoxazole, assay concentration 120 nM) to give a theoretical maximum concentration of 20 μM. The analytical samples were analysed by LC-MS/MS and the Log D calculated as shown:
[formula] Where PA=Peak area and ES=External standard

[4] = Homo sapiens, Wild-type HEK293 cells, Tunicamycin induced ISR, 6 h, read-out: IIEK-ATF4 Activity
[5] = acetate buffer 50 mM, pH 5.5, Table 25, read-out: Solubility (μg/mL) pH 5.5
[6] = phosphate buffer 50 mM, pH 7.4, Table 25, read-out: Solubility (μg/mL) pH 7.4
[7] = Table 24 category key, read-out: HEK-ATF4 Activity*
[8] = acetate buffer 50 mM, pH 5, Table 24, read-out: Solubility (μg/mL) pH 5
[9] = phosphate buffer 50 mM, pH 2, Table 24, read-out: Solubility (μg/mL) pH 2
[10] = phosphate buffer 50 mM, pH 7.4, Table 24, read-out: Solubility (μg/mL) pH 7.4

T1 sequence (Q12809 whole entry): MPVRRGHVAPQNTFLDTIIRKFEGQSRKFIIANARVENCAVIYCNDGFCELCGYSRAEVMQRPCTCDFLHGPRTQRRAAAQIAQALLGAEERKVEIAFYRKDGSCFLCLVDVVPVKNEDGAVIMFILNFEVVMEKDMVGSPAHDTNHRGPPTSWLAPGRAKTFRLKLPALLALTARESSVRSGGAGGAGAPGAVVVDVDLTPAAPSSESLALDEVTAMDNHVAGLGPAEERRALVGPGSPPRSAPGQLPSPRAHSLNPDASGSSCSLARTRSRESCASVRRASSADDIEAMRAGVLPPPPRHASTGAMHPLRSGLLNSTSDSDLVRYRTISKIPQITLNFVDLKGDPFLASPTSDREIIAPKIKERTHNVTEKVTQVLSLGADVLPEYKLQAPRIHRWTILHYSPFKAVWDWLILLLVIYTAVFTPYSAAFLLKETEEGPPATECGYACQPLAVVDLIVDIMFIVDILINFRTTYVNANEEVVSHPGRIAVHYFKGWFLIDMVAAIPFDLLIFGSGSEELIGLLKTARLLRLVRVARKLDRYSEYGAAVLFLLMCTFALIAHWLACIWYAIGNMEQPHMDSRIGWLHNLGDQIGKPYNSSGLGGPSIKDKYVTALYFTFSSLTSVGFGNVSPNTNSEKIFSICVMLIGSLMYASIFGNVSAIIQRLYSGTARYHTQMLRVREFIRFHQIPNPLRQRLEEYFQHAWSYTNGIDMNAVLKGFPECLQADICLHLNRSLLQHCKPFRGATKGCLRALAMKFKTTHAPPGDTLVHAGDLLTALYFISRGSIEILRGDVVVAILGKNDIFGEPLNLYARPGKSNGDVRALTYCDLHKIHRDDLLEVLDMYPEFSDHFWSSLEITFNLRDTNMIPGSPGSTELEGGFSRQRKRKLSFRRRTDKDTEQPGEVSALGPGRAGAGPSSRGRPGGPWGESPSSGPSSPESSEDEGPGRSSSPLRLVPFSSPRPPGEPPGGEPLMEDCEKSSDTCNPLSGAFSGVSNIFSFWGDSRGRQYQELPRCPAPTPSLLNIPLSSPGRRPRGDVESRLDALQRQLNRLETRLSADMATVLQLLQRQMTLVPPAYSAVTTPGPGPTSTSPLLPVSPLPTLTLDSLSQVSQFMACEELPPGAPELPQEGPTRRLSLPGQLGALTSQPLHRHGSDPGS

Row | IC50 (ATF4; [4]) | solubility [2, 5] | Solubility (μg/mL) pH 2.0 ([2]; pH 2.0, Table 25) | solubility [2, 6] | solubility ([2]; phosphate buffer 50 mM, pH 2.0, Table 25, read-out: Solubility (μg/mL) pH 2.0) | IC50 (ATF4; [7]) | solubility [2, 8] | solubility [2, 9] | solubility [2, 10] | logD at 120 min [3] | Structure (SMILES) | IC50 ([1]; Table 26) | IC50 ([1]; Table 24)
1 | 0.001 to 0.5 µM | 61 µg/mL (≈ 124 µM) | quant.^# | 17 µg/mL (≈ 34.5 µM) |  |  |  |  |  |  | O=C(COc1ccc(Cl)c(F)c1)N[C@H]1CC[C@H](c2noc([C@H]3C[C@@H](OC(F)(F)F)C3)n2)NC1 [Example 98, 2-(4-chloro-3-fluorophenoxy)-N-[(3S,6R)-6-{5-[(1s,3s)-3-(trifluoromethoxy)cyclobutyl]-1,2,4-oxadiazol-3-yl}piperidin-3-yl]acetamide] | 1 to 5 µM | 
2 | 0.001 to 0.5 µM | 97 µg/mL (≈ 195 µM) |  | 67 µg/mL (≈ 134 µM) | 812 µg/mL (≈ 1630 µM) |  |  |  |  |  | O=C(COc1ccc(C(F)(F)F)cc1)N[C@H]1CC[C@H](c2nnc(OCCOC(F)(F)F)o2)NC1 [Example 112, N-[(3S,6R)-6-{5-[2-(trifluoromethoxy)ethoxy]-1,3,4-oxadiazol-2-yl}piperidin-3-yl]-2-[4-(trifluoromethyl)phenoxy]acetamide] | > 5 µM | 
3 |  |  |  |  |  | 0.001 to 0.5 µM | < 1 µg/mL | < 1 µg/mL | < 1 µg/mL | 3.6 | O=C(COc1ccc(Cl)c(F)c1)N[C@@H]1CC[C@@H](c2nnc([C@H]3C[C@@H](OC(F)(F)F)C3)o2)OC1 [WO201904 6779 Ex 1, reference compound] |  | 1 to 5 µM
4 |  |  |  |  |  | 0.5 to 2 µM | 3 µg/mL (≈ 6.61 µM) | 3 µg/mL (≈ 6.61 µM) | 3 µg/mL (≈ 6.61 µM) | 2.9 | O=C(COc1ccc(Cl)c(F)c1)N[C@@H]1CC[C@@H](c2nnc(COC(F)(F)F)o2)OC1 [WO201904 6779 Ex 30, reference compound] |  | 0.001 to 1 µM

Source: patent publication US12258338B2, “Modulators of the integrated stress response pathway” (EVOTEC INTERNATIONAL GMBH, priority 2019, dated 2025)
